Where “and” joins values, the source holds several entries; their conditions need not be identical. Equal values may be shown once.
Tests used:
[1] = tested on: alloxan diabetic rats; assay: Effect on alloxan diabetes in rats (glycosuria, blood-sugar, urinary volume); assay type: in vivo, male wistar rats; settings: for restraining effect on quantity of glycosuria: Compound TA 80 mg/Kg, Compound NA 20 mg/Kg p.o. once a day for three weeks; for quantity of blood-sugar versus alloxan diabetic control group (in words): FIGS. 3 and 4, after 24 hours and 12 hours fasting; for effect for treatment of alloxan-diabetes (conclusion): alloxan diabetic rats; for blood-sugar level compared with diabetic control group (summary) / quantity of glycosuria compared with diabetic control group (summary) / urinary volume compared with diabetic control group (summary): summary of experiments
Protocol: Experiments were carried out in six-week male wistar rats weighing approximately 180 g. […] After 10 days, animals displaying abnormal quantity of glycosuria were selected as "diabetic" animals. Abnormality was arbitrarily determined as quantity of glycosuria for 24 hours over 0.5 g. Total 32 alloxan diabetic rats were divided into four aliquot groups of every eight rats at random. […] These rats were placed in the metabolism cage equiped with solid foods and drinking water. The foods were removed after 9 hours, and urine was collected from said rats for 24 hours. In other experience, total 45 alloxan diabetic rats were divided into three groups of aliquot. […] These rats were placed in the metabolism cages equiped with drinking water, and urine was collected for 12 hours. Blood was also collected in each case from the carotid artery of the rats under anesthesia. for the urine and the plasma, the following biochemical tests were effected. (a) Quantity of the blood-sugar and the glycosuria: Anthrone method.

[2] = tested on: rats; assay: Test of acute toxicity in rats; assay type: in vivo; settings: rats, administerable maximum quantity
Protocol: (§1) Acute toxicity of Compound TN for males and females of mice rats were tested.

[3] = Test of acute toxicity in rats; assay type: in vivo; settings: rat, in vivo
Protocol: as §1

[4] = tested on: beagles; assay: Test of subacute and chronic toxicity in beagles; assay type: in vivo; settings: 100 mg/Kg, three or six months
[5] = tested on: pregnant mice; assay: Test for malformation in pregnant mice; assay type: in vivo; settings: oral, 100 to 1200 mg/Kg
[6] = tested on: rats; assay: Test of subacute and chronic toxicity in rats; assay type: in vivo; settings: 100 to 1000 mg/Kg, three or six months
[7] = tested on: mice; assay: Test of acute toxicity in mice; assay type: in vivo; settings: mice, administerable maximum quantity
Protocol: as §1

[8] = Test of acute toxicity in mice; assay type: in vivo; settings: mouse, in vivo
Protocol: as §1

[9] = Solubility; assay type: physicochemical
[10] = tested on: pregnant rats; assay: Test for malformation in pregnant rats; assay type: in vivo; settings: oral, 100 to 1200 mg/Kg
[11] = tested on: diabetics; assay: Clinical data: blood sugar and ΔIRI/ΔBS in glucose tolerance test of diabetics; assay type: in vivo, human
Protocol: There were selected 15 diabetics, whose blood-sugar values are 111-150 mg;, respectively. The diabetics are 56.8 years old in average, ranging from 49 to 65 years old. They consist of 10 males and 5 females.
It was previously confirmed that the body weights of the diabetics are almost not varied during the continuation of dietetics.
There were orally administered a daily dose of six capsules for 8 weeks, each capsule containing 100 mg of the Compound TN.
Before and after the administration of the compound of the present invention, 50 g of sugar are orally administered to carry out glucose tolerance test. Quantities of blood-sugar were measured by means of Autoanalyzer with respect to the blood which was collected from the vein of the elbow. Further, quantities of insulin were measured, in accordance with Double antibody technic, before the glucose tolerance and after 30 minutes tolerance. From the following resulting quantities, value of ΔIRI/ΔBS was calculated.

[12] = tested on: blood-sugar amount; settings: reported in 1955; cited from earlier work
[13] = tested on: human diabetics (University Group Diabetes Program); settings: oral administration, 8 years; cited from earlier work
[14] = FIG. 1, urine for 24 hours, 100 mg/Kg p.o. once a day for three weeks

SMILES: CC(=O)Oc1c(C)c(C)c2c(c1C)CCC(C)(CCCC(C)CCCC(C)CCCC(C)C)O2 (racemic) [Compound TA, dl-α-tocopheryl acetate]
- restraining effect on quantity of glycosuria ([1]; FIG. 1, urine for 24 hours): the restraining effect could not be found
- quantity of blood-sugar versus alloxan diabetic control group (in words) ([1]; three weeks p.o.): there can not be found the differences
- effect for treatment of alloxan-diabetes (conclusion) ([1]; three weeks p.o.): such effect can not be found
- blood-sugar level compared with diabetic control group (summary) ([1]; three weeks p.o.): there could not be found the difference
- quantity of glycosuria compared with diabetic control group (summary) ([1]; three weeks p.o.): there could not be found the difference
- urinary volume compared with diabetic control group (summary) ([1]; three weeks p.o.): there could not be found the difference

SMILES: Cc1c(C)c2c(c(C)c1OC(=O)c1cccnc1)CCC(C)(CCCC(C)CCCC(C)CCCC(C)C)O2 (racemic) [Compound TN, dl-α-tocopherol nicotinate]
- reduction of quantity of glycosuria versus diabetic control group (mean) [1, 14]: 1.3 g/day
- reduction of quantity of glycosuria versus diabetic control group (percent) [1, 14]: 47%
- quantity of glycosuria ([1]; FIG. 2, urine for 12 hours, p.o. once a day for three weeks, TN 100 mg/Kg or TA 88 + NA 20 mg/Kg, diabetic control 1.24 g/12 hours): 0.76 g/12 hours
- quantity of glycosuria versus diabetic control group (in words) ([1]; FIG. 2, urine for 12 hours, three weeks p.o.): clearly reduced
- urinary volume (in words) ([1]; FIG. 5, after 12 hours, three weeks p.o.): reduces
- quantity of blood-sugar versus alloxan diabetic control group (in words) ([1]; three weeks p.o.): reduces significantly the quantity of the blood-sugar
- effect for treatment of alloxan-diabetes (conclusion) ([1]; three weeks p.o.): unique effect for treatment of alloxan-diabetes
- blood-sugar level compared with diabetic control group (summary) ([1]; three weeks p.o.): small such as P = 0.05
- quantity of glycosuria compared with diabetic control group (summary) ([1]; three weeks p.o.): small such as P = 0.05
- urinary volume compared with diabetic control group (summary) ([1]; three weeks p.o.): small such as P = 0.05
- deaths in acute toxicity test [2]: there is no case wherein the test animals died
- LD50 ([3]; im): > 10000 mg/kg
- LD50 ([3]; ip): > 2000 mg/kg
- LD50 ([3]; iv): > 250 mg/kg
- LD50 ([3]; po): > 15000 mg/kg
- LD50 ([3]; sc): > 15000 mg/kg
- appearance of toxicity (hematological, blood biochemical, histological searches) [4]: there could not be entirely recognized the appearance of the toxicity
- death case [4]: There could not be found the death case
- restraint of weight [4]: There could not be found the death case and the restraint of weight
- effects for mothers, foetuses and neonatal animals [5]: there could not be recognized any effects for mothers, foetuses and neonatal animals
- malformation [5]: no malformation could be entirely found
- appearance of toxicity (hematological, blood biochemical, histological searches) [6]: there could not be entirely recognized the appearance of the toxicity
- death case [6]: There could not be found the death case
- restraint of weight [6]: There could not be found the death case and the restraint of weight
- deaths in acute toxicity test [7]: there is no case wherein the test animals died
- LD50 ([8]; im): > 15000 mg/kg
- LD50 ([8]; ip): > 4000 mg/kg
- LD50 ([8]; iv): > 1000 mg/kg
- LD50 ([8]; po): > 20000 mg/kg
- LD50 ([8]; sc): > 20000 mg/kg
- solubility in acetone, benzene, chloroform, ether and ethanol ([9]; organic solvents): easily soluble
- solubility in water ([9]; water): hardly soluble
- effects for mothers, foetuses and neonatal animals [10]: there could not be recognized any effects for mothers, foetuses and neonatal animals
- malformation [10]: no malformation could be entirely found
- degree of adiposity ([11]; 15 diabetics, 8 weeks): there could hardly be found a tolerance with respect to the degree of adiposity
- Blood Sugar (2) FBS (fasting blood sugar) ([11]; individual patient, after administration, 600 mg/day p.o. (six 100 mg capsules) for 8 weeks): 114 mg% and 126 mg% and 111 mg% and 124 mg% and 122 mg% and 119 mg% and 123 mg% and 104 mg% and 110 mg% and 121 mg% and 118 mg%
- ΔIRI/ΔBS (30 min.) ([11]; individual patient, after administration, 8 weeks, 30 min. tolerance): 0.39 and 0.31 and 0.38 and 0.36 and 0.41 and 0.33 and 0.42 and 0.45 and 0.44 and 0.35 and 0.49
- Blood Sugar (2) 1 hour ([11]; individual patient, after administration, 8 weeks, 1 hour after 50 g glucose tolerance): 196 mg% and 193 mg% and 178 mg% and 198 mg% and 221 mg% and 201 mg% and 205 mg% and 174 mg% and 164 mg% and 211 mg% and 214 mg% and 195 mg% and 185 mg% and 197 mg%
- Blood Sugar (2) 2 hours ([11]; individual patient, after administration, 8 weeks, 2 hours after 50 g glucose tolerance): 185 mg% and 184 mg% and 164 mg% and 195 mg% and 189 mg% and 178 mg% and 186 mg% and 154 mg% and 179 mg% and 181 mg% and 163 mg% and 172 mg% and 190 mg%
- Blood Sugar (2) 3 hours ([11]; individual patient, after administration, 8 weeks, 3 hours after 50 g glucose tolerance): 136 mg% and 114 mg% and 121 mg% and 179 mg% and 175 mg% and 154 mg% and 171 mg% and 141 mg% and 105 mg% and 172 mg% and 130 mg% and 153 mg%
- Blood Sugar (2) 1 hour, mean ([11]; mean of 15, after administration, 8 weeks, 1 hour tolerance, before administration 226.5, P<0.05): 193.1 mg%
- Blood Sugar (2) 2 hours, mean ([11]; mean of 15, after administration, 8 weeks, 2 hours tolerance, before administration 203.7, P<0.05): 179.3 mg%
- Blood Sugar (2) 3 hours, mean ([11]; mean of 15, after administration, 8 weeks, 3 hours tolerance, before administration 166.1, P<0.05): 145.5 mg%
- ΔIRI/ΔBS (30 min.), mean ([11]; mean of 15, after administration, 8 weeks, before administration 0.319, P<0.001): 0.394
- Blood Sugar (2) FBS, mean ([11]; mean of 15 diabetics, after administration, 8 weeks, before administration 128.1, P<0.001): 116.3 mg%

SMILES: CCCCNC(=O)NS(=O)(=O)c1ccc(N)cc1 [Carbutamide]
- effect for depressing a blood-sugar amount [12]: remarkable effect for depressing a blood-sugar amount

SMILES: O=C(O)c1cccnc1 [Compound NA, nicotinic acid]
- restraining effect on quantity of glycosuria ([1]; FIG. 1, urine for 24 hours): the restraining effect could not be found
- quantity of blood-sugar versus alloxan diabetic control group (in words) ([1]; three weeks p.o.): there can not be found the differences
- effect for treatment of alloxan-diabetes (conclusion) ([1]; three weeks p.o.): such effect can not be found
- blood-sugar level compared with diabetic control group (summary) ([1]; three weeks p.o.): there could not be found the difference
- quantity of glycosuria compared with diabetic control group (summary) ([1]; three weeks p.o.): there could not be found the difference
- urinary volume compared with diabetic control group (summary) ([1]; three weeks p.o.): there could not be found the difference

SMILES: [H]/N=C(/N)N/C(=N/[H])NCCc1ccccc1 [Phenformin]
- number of deaths due to heart-blood vessel disorder, compared with placebo group [13]: 2.5 times

SMILES: CCCCNC(=O)NS(=O)(=O)c1ccc(C)cc1 [Tolbutamide]
- number of deaths due to heart-blood vessel disorder, compared with placebo group [13]: 2.5 times

Source: patent US4073910A, “Method for treatment of diabetes” (Eisai Co., Ltd., priority 1975, dated 1978)
